The target in the test is CA IX (Homo sapiens, UniProt Q16790). The test can be described thus: biochemical.

The values that follow come from publication PMC11497074 (RSC Advances, 2024).

Turning to `O=c1ccc2ccc(O[C@@H]3O[C@H](CO)[C@@H](O)[C@H](O)[C@H]3O)cc2o1` [Skimmin, skimmin], the IC50 – broadly, the midpoint of a concentration-inhibition curve – was determined as 548 ± 35.7 nM.
